From patent publication US5129937A, “Pyridyloxypyrimidine derivatives, preparation process thereof, and herbicidal compositions containing the same as active ingredients” (Mitsui Toatsu Chemicals Incorporated, priority 1989, dated 1992)

Legend:
Format in all cases: in vivo
[1] = system: Barnyardgrass (Echinochloa crus-galli); assay: Upland Soil Application Test; settings: 30 g ai/a; soil application before emergence, wettable powder; observed 30 days later
How it was run: (§1)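 In this soil-applied test, weed seeds were blended into the soil while crops were sown beneath a 2-3 cm soil cover. A water dilution of each wettable-powder formulation was sprayed onto the soil one day later, before weed emergence, at 10 l per are. Thirty days on, crop injury and weed damage were graded from dry weight relative to untreated pots.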

[2] = system: Common lambsquarters; assay: Upland Soil Application Test; settings: 30 g ai/a; soil application before emergence, wettable powder; observed 30 days later
How it was run: as §1

[3] = system: Crabgrass (Digitaria adsendens); assay: Upland Soil Application Test; settings: 30 g ai/a; soil application before emergence, wettable powder; observed 30 days later
How it was run: as §1

[4] = system: Foxtail (Setaria viridis); assay: Upland Soil Application Test; settings: 30 g ai/a; soil application before emergence, wettable powder; observed 30 days later
How it was run: as §1

[5] = system: Foxtail meadow; assay: Upland Soil Application Test; settings: 30 g ai/a; soil application before emergence, wettable powder; observed 30 days later
How it was run: as §1

[6] = system: Johnsongrass; assay: Upland Soil Application Test; settings: 30 g ai/a; soil application before emergence, wettable powder; observed 30 days later
How it was run: as §1

[7] = system: Redroot Pigweed; assay: Upland Soil Application Test; settings: 30 g ai/a; soil application before emergence, wettable powder; observed 30 days later
How it was run: as §1

[8] = system: Corn (Zea maize); assay: Upland Soil Application Test, crop injury; settings: 30 g ai/a; soil application before emergence, wettable powder; observed 30 days later
How it was run: as §1

[9] = system: Cotton (Gossypium indicum); assay: Upland Soil Application Test, crop injury; settings: 30 g ai/a; soil application before emergence, wettable powder; observed 30 days later
How it was run: as §1

[10] = system: Soybean (Glycine max); assay: Upland Soil Application Test, crop injury; settings: 30 g ai/a; soil application before emergence, wettable powder; observed 30 days later
How it was run: as §1

[11] = system: Barnyardgrass (Echinochloa crus-galli); assay: Upland Foliar Application Test; settings: 30 g ai/a; foliar application at 2-3 leaf stage, emulsion; observed on the 30th day
How it was run: (§2)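 Single foliar treatment of 2–3-leaf weeds grown from seed in upland soil in a greenhouse; compound given as diluted emulsion at a fixed rate by ULV sprayer. Damage scored on day 30.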

[12] = system: Common lambsquarters; assay: Upland Foliar Application Test; settings: 30 g ai/a; foliar application at 2-3 leaf stage, emulsion; observed on the 30th day
How it was run: as §2

[13] = system: Crabgrass (Digitaria adsendens); assay: Upland Foliar Application Test; settings: 30 g ai/a; foliar application at 2-3 leaf stage, emulsion; observed on the 30th day
How it was run: as §2

[14] = system: Foxtail (Setaria viridis); assay: Upland Foliar Application Test; settings: 30 g ai/a; foliar application at 2-3 leaf stage, emulsion; observed on the 30th day
How it was run: as §2

[15] = system: Foxtail meadow; assay: Upland Foliar Application Test; settings: 30 g ai/a; foliar application at 2-3 leaf stage, emulsion; observed on the 30th day
How it was run: as §2

[16] = system: Johnsongrass; assay: Upland Foliar Application Test; settings: 30 g ai/a; foliar application at 2-3 leaf stage, emulsion; observed on the 30th day
How it was run: as §2

[17] = system: Redroot Pigweed; assay: Upland Foliar Application Test; settings: 30 g ai/a; foliar application at 2-3 leaf stage, emulsion; observed on the 30th day
How it was run: as §2

[18] = system: Corn (Zea maize); assay: Upland Foliar Application Test, crop injury; settings: 30 g ai/a; foliar application at 2-3 leaf stage, emulsion; observed on the 30th day
How it was run: (§3)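 Herbicidal damage is rated visually on day 30 after treatment. Seedlings raised in upland-field soil under glass receive a foliar spray at the 2–3 leaf stage: a water-diluted emulsion of compound, delivered at a set application rate in 5 l per are via ULV pressure sprayer.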

[19] = system: Cotton (Gossypium indicum); assay: Upland Foliar Application Test, crop injury; settings: 30 g ai/a; foliar application at 2-3 leaf stage, emulsion; observed on the 30th day
How it was run: as §3

[20] = system: Soybean (Glycine max); assay: Upland Foliar Application Test, crop injury; settings: 30 g ai/a; foliar application at 2-3 leaf stage, emulsion; observed on the 30th day
How it was run: as §3

[21] = system: Rice (Oryza sativa); assay: Submerged Soil Treatment Test (Pre-Emergence Treatment), crop injury; settings: 30 g ai/a, granule, transplanted rice, observed 30 days later
[22] = system: Arrowhead sp. (Sagittaria pygmaea); assay: Submerged Soil Treatment Test (Growth Stage Treatment); settings: 30 g ai/a, growth stage treatment (barnyardgrass two-leaf stage), granule, observed 30 days later
[23] = system: Barnyardgrass (Echinochloa crus-galli); assay: as above; settings: 30 g ai/a, growth stage treatment (barnyardgrass two-leaf stage), granule, observed 30 days later
[24] = system: Bulrush (Scirpus juncoides); assay: as above; settings: 30 g ai/a, growth stage treatment (barnyardgrass two-leaf stage), granule, observed 30 days later
[25] = system: Rice (Oryza sativa); assay: Submerged Soil Treatment Test (Growth Stage Treatment), crop injury; settings: 30 g ai/a, growth stage treatment (barnyardgrass two-leaf stage), granule, transplanted rice, observed 30 days later

COc1cc(OC)nc(Oc2cccnc2C2OCCCO2)n1 [Compound No. 8]
3 (11-40 (Medium damages)): Herbicidal effects Common lambquarters [2] | Herbicidal effects Crabgrass (Digitaria adsendens) [3] | Herbicidal effects Foxtail (Setaria viridis) [4] | Herbicidal effects Redroot Pigweed [7] | Herbicidal effects Crabgrass (Digitaria adsendens) [13]
2 (41-70 (Small damages)): Herbicidal effects Arrowhead sp. (Sagittaria pygmaea) [22] | Herbicidal effects Bulrush (Scirpus juncoides) [24]
5 (0-5 (Death)): Herbicidal effects Johnsongrass [16]
4 (6-10 (Severe damages)): Herbicidal effects Barnyardgrass (Echinochloa crus-galli) [1] | Herbicidal effects Foxtail meadow [5] | Herbicidal effects Johnsongrass [6] | Herbicidal effects Barnyardgrass (Echinochloa crus-galli) [11] | Herbicidal effects Common lambquarters [12] | Herbicidal effects Foxtail (Setaria viridis) [14] | Herbicidal effects Foxtail meadow [15] | Herbicidal effects Redroot Pigweed [17] | Herbicidal effects Barnyardgrass (Echinochloa crus-galli) [23]
0 (91-100 (No damages)): Crop injury Corn (Zea maize) [8] | Crop injury Cotton (Gossypium indicum) [9] | Crop injury Soybean (Glycine max) [10] | Crop injury Corn (Zea maize) [18] | Crop injury Cotton (Gossypium indicum) [19] | Crop injury Soybean (Glycine max) [20] | Crop injury Rice (Oryza sativa) [21] | Crop injury Rice (Oryza sativa) [25]
